In EP4603105A1, “PHARMACEUTICAL COMPOSITION CONTAINING CYCLIC COMPOUND HAVING SELECTIVE KRAS INHIBITORY EFFECT AGAINST HRAS AND NRAS” (CHUGAI SEIYAKU KABUSHIKI KAISHA, priority 2022, dated 2024):
*1 amine or outer side, *2 acyl side, *3 side chain or, on linkers, in order; H or OH if unused. Where a SMILES comes first, the peptide text is derived from it. Bridges are numbered along the chain shown (N, C = ends). [ ]: non-standard residue; d: D form. The star is where a group is joined. hPhe(3-Cl-4-CF3) = N[C@@H](CCc1ccc(C(F)(F)F)c(Cl)c1)C(=O)O; NPrPhe(4-CF3) = CCCN[C@@H](Cc1ccc(C(F)(F)F)cc1)C(=O)O; X46 = C=CCCN([C@@H](Cc1ccc(C)cc1)C(=O)[*:2])[*:1]; NMeGly(cPent) = CN[C@H](C(=O)O)C1CCCC1; NMeAllylGly = C=CC[C@H](NC)C(=O)O; Gly(cBu) = N[C@H](C(=O)O)C1CCC1; NMeD = CN[C@@H](CC(=O)O)C(=O)O; NMeL = CN[C@@H](CC(C)C)C(=O)O; Morpholide = C1CN(*)CCO1; NMeA = CN[C@@H](C)C(=O)O; Ac5c = NC1(C(=O)O)CCCC1; Aze = O=C(O)[C@@H]1CCN1; NcPrGly = O=C(O)CNC1CC1; Ac4c = NC1(C(=O)O)CCC1; NEtG = CCNCC(=O)O; Sar = CNCC(=O)O

What was measured:
HRAS wild-type protein = HRAS wild-type protein (Homo sapiens, UniProt P01112); assay: Binding to HRAS by surface plasmon resonance (SPR), KD and KD ratio to KRAS
In short: (§1)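 Recombinant RAS proteins bearing a biotinylated Avi tag and loaded with GDP served as the captured ligand, recaptured fresh every cycle. Binding responses were referenced to an uncoated surface and a buffer-only blank cycle. Dissociation constants were obtained by 1:1 model fitting at 30°C.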

[1] = target: GDP-bound NRAS wild-type protein (Homo sapiens, UniProt P01111); assay: Binding to NRAS by surface plasmon resonance (SPR), KD and KD ratio to KRAS
In short: as §1

[2] = system: human lung cancer strain NCI-H441; type: cell-based
In short: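 Signal came from […] measured per well once the reagent was added. Beforehand, cells were cultured at 37°C and 5% carbon dioxide on a compound series serially diluted in dimethyl sulfoxide.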

[3] = ratio of KD for HRAS wild-type protein to KD for KRAS
[4] = ratio of KD for GDP-bound NRAS wild-type protein to KD for KRAS

GDP-bound NRAS wild-type protein, sequence (P01111 whole entry): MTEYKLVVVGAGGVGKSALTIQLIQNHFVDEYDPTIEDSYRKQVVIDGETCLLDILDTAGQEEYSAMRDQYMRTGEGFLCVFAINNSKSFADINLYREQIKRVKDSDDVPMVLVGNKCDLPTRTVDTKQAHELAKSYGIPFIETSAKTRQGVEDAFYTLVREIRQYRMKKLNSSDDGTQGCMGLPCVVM
HRAS wild-type protein, sequence (P01112 whole entry): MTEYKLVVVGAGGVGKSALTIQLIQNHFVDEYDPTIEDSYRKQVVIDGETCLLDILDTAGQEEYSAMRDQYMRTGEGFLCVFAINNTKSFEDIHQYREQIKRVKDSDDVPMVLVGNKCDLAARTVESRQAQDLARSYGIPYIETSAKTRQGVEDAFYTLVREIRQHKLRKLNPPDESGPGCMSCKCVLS

SMILES	IC50 [2] [nM]	HRAS /KRAS (HRAS wild-type protein; ratio of the KD value with respect to HRAS wild-type protein to the KD value with respect to KRAS)	NRAS /KRAS ([1]; ratio of the KD value with respect to GDP-bound NRAS wild-type protein to the KD value with respect to KRAS)	HRAS /KRAS (HRAS wild-type protein; [3])	NRAS /KRAS [1, 4]
CCC[C@H]1C(=O)N[C@@H]([C@@H](C)CC)C(=O)N(C)CC(=O)N(C)[C@H]2C/C=C\CCN(C2=O)[C@@H](CC2CCC(F)(F)CC2)C(=O)N(C)CC(=O)N[C@@H](CCc2ccc(C(F)(F)F)c(OC)c2)C(=O)N2C[C@H](OCC)C[C@H]2C(=O)N(C)C2(CCC2)C(=O)N(C)[C@@H](C(CC)CC)C(=O)N(C)[C@H](C(=O)N(C)C)CC(=O)N1C [PP2345]	77.2	A (a compound having 10 or more and less than 20 is denoted as A)	A (a compound having 10 or more and less than 20 is denoted as A)		
CCCN1C(=O)CN(C)C(=O)CN(C2CC2)C(=O)[C@H]([C@@H](C)CC)NC(=O)[C@H](CC(C)C)N(C)C(=O)C[C@@H](C(=O)N2CCOCC2)N(C)C(=O)[C@H](C2CCCC2)N(C)C(=O)C2(CCCC2)NC(=O)[C@@H]2CCCN2C(=O)[C@H](CCc2ccc(C(F)(F)F)c(Cl)c2)NC(=O)CN(C)C(=O)[C@@H]1Cc1ccc(C(F)(F)F)cc1 [PP0252] ([NMeL]I[NcPrGly][Sar][NPrPhe(4-CF3)][Sar][hPhe(3-Cl-4-CF3)]P[Ac5c][NMeGly(cPent)][NMeD]-Morpholide; lactam N-11)	19.4			B (a compound having 3 or more and less than 10 is denoted as B)	B (a compound having 3 or more and less than 10 is denoted as B)
CCC[C@H]1C(=O)N[C@@H]([C@@H](C)CC)C(=O)N(C2CC2)CC(=O)N(C)[C@H]2C/C=C\CCN(C2=O)[C@@H](Cc2ccc(C)cc2)C(=O)N(C)CC(=O)N[C@@H](CCc2ccc(C3CC3)c(OC)c2)C(=O)N2C[C@H](OCC)C[C@H]2C(=O)NC2(CC(C)(C)C2)C(=O)N(C)[C@@H](C2CCCC2)C(=O)N(C)[C@H](C(=O)N(C)C)CC(=O)N1C [PP2883]	76.2			A (a compound having 10 or more and less than 20 is denoted as A)	A (a compound having 10 or more and less than 20 is denoted as A)
CCCN1C(=O)CN(C)C(=O)CN(CC)C(=O)[C@H](C2CCC2)NC(=O)[C@H](CC(C)C)N(C)C(=O)C[C@@H](C(=O)N2CCOCC2)N(C)C(=O)[C@H](C2CCCC2)N(C)C(=O)C2(CCCC2)NC(=O)[C@@H]2CCCN2C(=O)[C@H](CCc2ccc(C(F)(F)F)c(Cl)c2)NC(=O)CN(C)C(=O)[C@@H]1Cc1ccc(C(F)(F)F)cc1 [PP0292] ([NMeL][Gly(cBu)][NEtG][Sar][NPrPhe(4-CF3)][Sar][hPhe(3-Cl-4-CF3)]P[Ac5c][NMeGly(cPent)][NMeD]-Morpholide; lactam N-11)	36.3			C (A compound having a KD ratio of 0.1 or more and less than 3 is denoted as C)	B (a compound having 3 or more and less than 10 is denoted as B)
C=CCCN1C(=O)[C@H](CC=C)N(C)C(=O)CN(C)C(=O)[C@H]([C@@H](C)CC)NC(=O)[C@H](CC(C)C)N(C)C(=O)C[C@@H](C(=O)N2CCOCC2)N(C)C(=O)[C@H](C2CCCC2)N(C)C(=O)C2(CCCC2)NC(=O)[C@@H]2CCCN2C(=O)[C@H](CCc2ccc(C(F)(F)F)c(Cl)c2)NC(=O)CN(C)C(=O)[C@@H]1Cc1ccc(C)cc1 [PP0140] ([NMeL]I[Sar][NMeAllylGly][X46][Sar][hPhe(3-Cl-4-CF3)]P[Ac5c][NMeGly(cPent)][NMeD]-Morpholide; lactam N-11)	712			B (a compound having 3 or more and less than 10 is denoted as B)	C (A compound having a KD ratio of 0.1 or more and less than 3 is denoted as C)

More lines, in order of falling IC50 [2], values ahead:

IC50 [2] [nM]	SMILES	HRAS /KRAS (HRAS wild-type protein; ratio of the KD value with respect to HRAS wild-type protein to the KD value with respect to KRAS)	NRAS /KRAS ([1]; ratio of the KD value with respect to GDP-bound NRAS wild-type protein to the KD value with respect to KRAS)	HRAS /KRAS (HRAS wild-type protein; [3])	NRAS /KRAS [1, 4]
82.9	CCCN1C(=O)[C@@H]2CCN2C(=O)[C@H](C)N(C)C(=O)[C@H]([C@@H](C)CC)NC(=O)[C@H](CC(C)C)N(C)C(=O)C[C@@H](C(=O)N2CCOCC2)NC(=O)[C@H](C2CCCC2)N(C)C(=O)C2(CCC2)NC(=O)[C@@H]2CCCN2C(=O)[C@H](CCc2ccc(C(F)(F)F)c(Cl)c2)NC(=O)CN(C)C(=O)[C@@H]1Cc1ccc(C(F)(F)F)cc1 [PP0344] ([NMeL]I[NMeA][Aze][NPrPhe(4-CF3)][Sar][hPhe(3-Cl-4-CF3)]P[Ac4c][NMeGly(cPent)]D-Morpholide; lactam N-11)			B (a compound having 3 or more and less than 10 is denoted as B)	C (A compound having a KD ratio of 0.1 or more and less than 3 is denoted as C)
2.2	CCCN1C(=O)CN(C)C(=O)CN(C)C(=O)[C@H]([C@@H](C)CC)NC(=O)[C@@H]2CCCCCOc3ccc(cc3)C[C@H]1C(=O)N(C)CC(=O)N[C@@H](CCc1cc(F)c(C(F)(F)F)c(F)c1)C(=O)N1C[C@H](OCC)C[C@H]1C(=O)NC1(CCCC1)C(=O)N(C)[C@@H](C1CCCC1)C(=O)N(C)[C@H](C(=O)N(C)C)CC(=O)N2C [PP0895]			C (A compound having a KD ratio of 0.1 or more and less than 3 is denoted as C)	C (A compound having a KD ratio of 0.1 or more and less than 3 is denoted as C)
